# Source: patent US20240391889A1, “ANTIMICROBIAL COMPOUNDS AND THE METHODS OF USE” (priority 2021, published 2024)
# Where two headings read alike, the source gives them in different places. Numbered stars: 1 amine (or outer) side, 2 acyl side, 3 side chain; on linkers, the order of the positions; unused ones are H or OH. Square brackets hold non-standard residues; d marks the D form. Peptide text beside a SMILES is read from it. * marks the point of attachment. N(1S-cyclohexylethyl)Gly = C[C@H](NCC(=O)O)C1CCCCC1; N(2-thienylmethyl)Gly = O=C(O)CNCc1cccs1; NCyclohexylmethylGly = O=C(O)CNCC1CCCCC1; N(tridecyl)Gly = CCCCCCCCCCCCCNCC(=O)O; X2 = O=C(CN(c1cccc2ccccc12)[*:1])[*:2]; N(4-MeOBn)Gly = COc1ccc(CNCC(=O)O)cc1; N(4-F-Bzl)Gly = O=C(O)CNCc1ccc(F)cc1; X1 = CC(c1ccccc1)N(CC(=O)[*:2])[*:1]; Gly(N-2-aminoethyl) = NCCNCC(=O)O; Myristoyl = CCCCCCCCCCCCCC(=O)*; NFurfurylGly = O=C(O)CNCc1ccco1; Gly(N(CH2)3NH2) = NCCCNCC(=O)O; Nphe = O=C(O)CNCc1ccccc1; NPrGly = CCCNCC(=O)O; Nlys = NCCCCNCC(=O)O
# Columns and labels:
# C. neoformans = assay type: cell-based, Cryptococcus neoformans; details: 72 h
# Source text: (§1) This screening led to the discovery of RMG9-11 (FIG. 2C). The minimum inhibitory concentration (MIC) of resynthesized RMG9-11 was initially determined against C. albicans, C. neoformans, and the ESKAPE bacteria via CSLI guidelines (CLSI. Methods for Dilution Antimicrobial Susceptibility Tests for Bacteria That Grow Aerobically, 11th Edition. Clinical and Laboratory Standards Institute (2018); CLSI. Reference method for broth dilution antifungal susceptibility testing of yeasts; approved standard-third edition; CLSI document M27-A3. Clinical and Laboratory Standards Institute (2008)). […] C. albicans clinical isolates include a reference strain (M1), fluconazole susceptible strains (M4 and M6), and fluconazole resistant strains (M2, M3, M5, and M7). ATCC 64124 is multidrug resistant C. albicans strain that is resistant to amphotericin B, fluconazole, caspofungin, and flucytosine. All MICs were performed under CSLI guidelines in triplicate on at least three different days.
# (§2) The minimum inhibitory concentration (MIC) of peptoids against fungal pathogens C. albicans and C. neoformans was determined following CLSI guidelines (Reference method for broth dilution antifungal susceptibility testing of yeasts; approved standard-third edition; CLSI document M27-A3.” CLSI. 2008.). Colonies were transferred from a streaked YPD plate to 0.85% saline to reach an OD530 between 0.18 and 0.25. This inoculant was diluted 1:100 into RPMI-MOPS and then further diluted 1:20 into RPMI-MOPS. 198 μL of inoculant was seeded into each well of a 96 well black-walled plate. 2-fold serial dilutions of 100× peptoid solutions were prepared in water and 2 μL of peptoid were added to each well in triplicate. […] MIC was defined as the lowest concentration of compound preventing fungal growth. This assay was repeated 3 times on separate days with each compound.
# in vitro = assay type: cell-based; details: human, HepG2 hepatocellular carcinoma cells
# Procedure: (§3) The mammalian cell lines that were tested (HepG2, 3T3, and HaCat) were incubated with RMG9-11 for 72 hours and cell viability was determined via mitochondrial activity using an MTT reduction assay where viable cells reduce MTT to formazan. Toxicity is reported as the concentration of the peptoid that results in a 50% reduction in viable cells, termed toxicity dose 50% or TD50. […] SR is defined as the TD50 divided by MIC and provides a measure of the therapeutic window for a compound. Typically for most lead compounds that would continue through development and optimization, a SR of 10 is preferred while an SR of 100 is more desirable for a compound moving into preclinical animal model evaluation.
# (§4) Hepatocellular carcinoma (HepG2), mouse fibroblast (3T3), and human keratinocyte (HaCat) cells were cultured in Dulbeco modified eagle media (DMEM) containing 10% fetal bovine serum (FBS) and 1% penicillin, streptomycin, and glutamine (PSG) at 37° C. and 5% CO2. Cells were collected and adjusted to […] to 4×10^5 cells/mL in phenol-red free DMEM and plated (100 μL) 96 well plates. 2-fold serial dilutions of 10× peptoid (11.1 μL) were added to each well in triplicate. Water (vehicle) was used as a negative control. Plates were incubated at 37° C. in 5% CO2 for 72 hours. Thiazolyl blue tetrazolium bromide (MTT) was added to each well (5 mg/mL; 20 μL) and incubated for 3 hours. Media was removed, DMSO (100 μL) was added, and plates were incubated at 37° C. for 10 minutes. Plates were read on a SPECTRAMAX M5 plate reader (Abs. 570 nm). The concentration of compound resulting in a 50% reduction in growth compared to control (toxicity dose 50%; TD50) was determined using GRAFIT. This procedure was repeated three times on separate days.
# HepG2 liver cells = assay: in vitro; assay type: cell-based
# Procedure: as §3, §4
# C. albicans = assay type: cell-based, Candida albicans; details: 24 h
# Source text: as §1, §2
# [1] = Percent acetonitrile at time of elution from RP-HPLC (hydrophobicity); assay type: physicochemical
# Procedure: Round 1 of the iterative SAR explored two miscellaneous derivatives along with derivatives that explored substitutions in position 3 (R^2; FIG. 6). Structures were confirmed by ESI-MS and hydrophobicity was determined by the percent acetonitrile at time of elution during RP-HPLC purification and using MarvinSketch to calculate the distribution coefficient at pH 7.4 (Table 5). Only one derivative of position 1 (group T of Formula 1) was explored, substituting a 14-carbon fatty acid (myristic acid) tail in place of the tridecyl tail (911-M1). This was tested because this fatty acid was previously shown to improve activity with C. albicans while reducing toxicity (Green R M, Bicker R. L. Evaluation of peptoid mimics of short, lipophilic peptide antimicrobials. Int J Antimicrob Agents. 2020; 56(2):106048. doi:10.1016/j.ijantimicag.2020.106048). The second miscellaneous derivative tested substituting the propyl group (Nnva) in position 2 (R^1) with a cationic group in an effort to reduce toxicity without effecting antifungal activity (911-M2). […]
Structure (SMILES),MIC C. neoformans (C. neoformans),CC50 at 72 h (in vitro),HepG2 TD50 (HepG2 liver cells),cytotoxicity compared to RMG9-11 (HepG2 liver cells),MIC C. albicans (C. albicans),MIC C. neoformans (C. neoformans; listed as 911-10),% ACN [1],toxicity compared to 911-M1 (HepG2 liver cells)
CCCCCCCCCCCCCC(=O)NCC(=O)N(CCC)CC(=O)N(CC(=O)N(CCCCN)CC(=O)N(CC(=O)N(CC(=O)N(CCCN)CC(N)=O)Cc1ccccc1)Cc1ccco1)C(C)c1ccccc1 (stereo not drawn) [Compound 911-M1] (Myristoyl-G[NPrGly][X1][Nlys][NFurfurylGly][Nphe][Gly(N(CH2)3NH2)]-NH2),3.13 µg/mL,144 ± 22.6 µg/mL,144.5 ± 22.6 µg/mL,decreased cytotoxicity,3.13 to 6.25 µg/mL,,,
CCCCCCCCCCCCCNCC(=O)N(CCN)CC(=O)N(CC(=O)N(CCCCN)CC(=O)N(CC(=O)N(CC(=O)N(CCCN)CC(N)=O)Cc1ccccc1)Cc1ccco1)C(C)c1ccccc1 (stereo not drawn) [Compound 911-M2] (H-[N(tridecyl)Gly][Gly(N-2-aminoethyl)][X1][Nlys][NFurfurylGly][Nphe][Gly(N(CH2)3NH2)]-NH2),3.13 µg/mL,177 ± 20.5 µg/mL,,dramatic decrease in cytotoxicity,6.25 to 12.5 µg/mL,,,
CCCCCCCCCCCCCNCC(=O)N(CCC)CC(=O)N(CC(=O)N(CCCCN)CC(=O)N(CC(=O)N(CC(=O)N(CCCN)CC(N)=O)Cc1ccccc1)Cc1ccco1)CC1CCCCC1 [Compound 911-M10] (H-[N(tridecyl)Gly][NPrGly][NCyclohexylmethylGly][Nlys][NFurfurylGly][Nphe][Gly(N(CH2)3NH2)]-NH2; N-terminus assumed),0.78 to 1.56 µg/mL,97.8 ± 18.3 µg/mL,,,6.25 µg/mL,sub-one,72.3%,
CCCCCCCCCCCCCC(=O)NCC(=O)N(CCC)CC(=O)N(CC(=O)N(CCCCN)CC(=O)N(CC(=O)N(CC(=O)N(CCCN)CC(N)=O)c1cccc2ccccc12)Cc1ccco1)C(C)c1ccccc1 (stereo not drawn) [Compound 911-M15] (Myristoyl-G[NPrGly][X1][Nlys][NFurfurylGly][X2][Gly(N(CH2)3NH2)]-NH2),3.13 to 6.25 µg/mL,122 ± 21.3 µg/mL,,,6.25 µg/mL,,,
CCCCCCCCCCCCCC(=O)NCC(=O)N(CCC)CC(=O)N(CC(=O)N(CCCCN)CC(=O)N(CC(=O)N(CC(=O)N(CCCN)CC(N)=O)Cc1ccc(OC)cc1)Cc1ccco1)C(C)c1ccccc1 (stereo not drawn) [Compound 911-M16] (Myristoyl-G[NPrGly][X1][Nlys][NFurfurylGly][N(4-MeOBn)Gly][Gly(N(CH2)3NH2)]-NH2),3.13 to 6.25 µg/mL,136 ± 39.6 µg/mL,,,6.25 µg/mL,,,
CCCCCCCCCCCCCC(=O)NCC(=O)N(CCC)CC(=O)N(CC(=O)N(CCCCN)CC(=O)N(CC(=O)N(CC(=O)N(CCCN)CC(N)=O)[C@@H](C)C1CCCCC1)Cc1ccco1)C(C)c1ccccc1 (stereo partly drawn) [Compound 911-M17] (Myristoyl-G[NPrGly][X1][Nlys][NFurfurylGly][N(1S-cyclohexylethyl)Gly][Gly(N(CH2)3NH2)]-NH2),3.13 to 6.25 µg/mL,81.6 ± 5.97 µg/mL,,,6.25 µg/mL,,,markedly more toxic
CCCCCCCCCCCCCC(=O)NCC(=O)N(CCC)CC(=O)N(CC(=O)N(CCCCN)CC(=O)N(CC(=O)N(CC(=O)N(CCCN)CC(N)=O)Cc1ccco1)Cc1ccco1)C(C)c1ccccc1 (stereo not drawn) [Compound 911-M18] (Myristoyl-G[NPrGly][X1][Nlys][NFurfurylGly][NFurfurylGly][Gly(N(CH2)3NH2)]-NH2),6.25 µg/mL,152 ± 8.04 µg/mL,151.96 ± 8.04 µg/mL,,6.25 µg/mL,,,slightly though not significantly better
CCCCCCCCCCCCCC(=O)NCC(=O)N(CCC)CC(=O)N(CC(=O)N(CCCCN)CC(=O)N(CC(=O)N(CC(=O)N(CCCN)CC(N)=O)Cc1ccc(F)cc1)Cc1ccco1)C(C)c1ccccc1 (stereo not drawn) [Compound 911-M19] (Myristoyl-G[NPrGly][X1][Nlys][NFurfurylGly][N(4-F-Bzl)Gly][Gly(N(CH2)3NH2)]-NH2),3.13 µg/mL,106 ± 34.8 µg/mL,,,6.25 µg/mL,,,
CCCCCCCCCCCCCC(=O)NCC(=O)N(CCC)CC(=O)N(CC(=O)N(CCCCN)CC(=O)N(CC(=O)N(CC(=O)N(CCCN)CC(N)=O)CC1CCCCC1)Cc1ccco1)C(C)c1ccccc1 (stereo not drawn) [Compound 911-M20] (Myristoyl-G[NPrGly][X1][Nlys][NFurfurylGly][NCyclohexylmethylGly][Gly(N(CH2)3NH2)]-NH2),3.13 µg/mL,79.6 ± 5.12 µg/mL,,,6.25 µg/mL,,,markedly more toxic
CCCCCCCCCCCCCC(=O)NCC(=O)N(CCC)CC(=O)N(CC(=O)N(CCCCN)CC(=O)N(CC(=O)N(CC(=O)N(CCCN)CC(N)=O)Cc1cccs1)Cc1ccco1)C(C)c1ccccc1 (stereo not drawn) [Compound 911-M21] (Myristoyl-G[NPrGly][X1][Nlys][NFurfurylGly][N(2-thienylmethyl)Gly][Gly(N(CH2)3NH2)]-NH2),3.13 to 6.25 µg/mL,135 ± 52.1 µg/mL,,,6.25 µg/mL,,,
CCCCCCCCCCCCCC(=O)NCC(=O)N(CCC)CC(=O)N(CC(=O)N(CCCCN)CC(=O)N(CC(=O)N(CC(=O)N(CCCN)CC(N)=O)C(C)c1ccccc1)Cc1ccco1)C(C)c1ccccc1 (stereo not drawn) [Compound 911-M22] (Myristoyl-G[NPrGly][X1][Nlys][NFurfurylGly][X1][Gly(N(CH2)3NH2)]-NH2),3.13 µg/mL,113 ± 41.9 µg/mL,,,6.25 µg/mL,,,
